≈ marks a conversion by molar mass, not a printed value.
Experiments:
Mucor mucedo = assay: Antifungal Test (MIC, Sabouraud's agar); format: cell-based; conditions: 120 h
Microsporum gypseum = assay: Antifungal Test (MIC, Sabouraud's agar); format: cell-based; conditions: Nannizzia gypsea, 120 h
Method: (§1) (i) Preparation of the test solution: The sample to be tested was examined to determine a suitable solvent from those listed below and the method of dissolution, and then the sample was weighed (about 10 mg), dissolved in the selected solvent and diluted with sterilized distilled water to a concentration of 500 μg/ml. Samples of the resulting solution were then subjected to sequential dilution to half the previous concentration to prepare I2 samples in which the concentration of active compound is progressively halved.
(§2) (ii) Test procedure for antifungal activity: Using Nunklon (Registered trademark) 24.hole plates (manufactured by Nunk K. K.), 0.1 ml each of the diluted solutions described above was poured into a hole, 0.9 ml of Sabouraud's agar medium was added to each hole, giving a total of 1 ml in each hole, and mixed to prepare the plate medium.
6 Microsporum gypseum (M. gypseu)
(§3) These test strains were inoculated by means of a slant on Sabouraud's agar medium, cultured at 27° C. for 2 days for the yeast strains or for 7 to 14 days for the mold strains, and, kept intact, preserved at 5° C. (subcultured every 1 month). On the day of the test, in the case of the yeast medium, physiological saline to which had previously been added Tween 80 in an amount of 0.1% (w/v) was added to each medium to prepare 10^6 cells/ml suspensions; and, in the case of the mold medium, 4 ml each of the solution above was added to the surface of the agar slant, the surface was rubbed slightly with a stirrer or a platinum loop to suspend the spores, and then, by filtration through a funnel on which 2 sterilized gauzes were placed one upon another, 10^6 cells/ml suspensions were prepared. Using an Eppendorf pipette, 0.1 ml each of these suspension preparations was inoculated and cultivated. The culture was conducted at 27° C. for 2 days for the three strains of yeast, for 5 days for molds 4 , 5 and 6, and for 7 days for molds 7 and 8 to determine minimal inhibitory concentrations of the test samples.

[1] = tested on: Trichophyton mentagrophytes Sc.; assay: Antifungal Test (MIC, Sabouraud's agar); format: cell-based; conditions: 168 h, T. mentag, 27° C., 7 days
Method: as §1, §2
7 Trichophyton mentagrophytes Sc. (T. mentag)
as §3

Aspergillus fumigatus = assay: Antifungal Test (MIC, Sabouraud's agar); format: cell-based; conditions: 120 h, A. fumiga, 27° C., 5 days
Method: as §1, §2
5 Aspergillus fumigatus (A. fumiga)
as §3

[2] = tested on: Aspergillus niger (Fungus A); assay: Antifungal Activity (paper disc on agar); conditions: 30 μl of 300 ppm acetone solution, 25° C., 5 days
Method: (§4) A fungal disc of about 4 mm diameter was inoculated on an agar medium (2% by weight malt extract, 1% glucose, 0.3% peptone and 2% agar) in a petri dish of diameter 9 cm, by placing the disc on the center of the medium. Paper disc specimens were prepared by impregnating 30 μl of an acetone solution containing 300 ppm of the test compound into the disc (diameter 8 mm, thickness 0.7 mm) and then subjecting it to dry sterilization. The disc specimens were placed in a circle at about 1 cm distance from the fringe of the grown fungus, three days after the inoculation. The specimens were then maintained at 25° C. for 5 days, after which the antifungal activity was determined by visual observation of infection of the specimens by the fungus. The fungi tested were:
Aspergillus niger (Fungus A),

Candida albicans 427 = assay: Antifungal Test (MIC, Sabouraud's agar); format: cell-based; conditions: Candida albicans, 427, 48 h
[3] = tested on: Cryptococcus neoformans 58063; assay: Antifungal Test (MIC, Sabouraud's agar); format: cell-based; conditions: Cryptococcus neoformans, 58063, 48 h; C. neofor; 27° C., 2 days
Method: as §1, §2
3 Cryptococcus neoformans 58063 (C. neofor)
as §3

Candida Albicans Sc. = assay: Antifungal Test (MIC, Sabouraud's agar); format: cell-based; conditions: 48 h, C. albica, 27° C., 2 days
Method: as §1, §2
1 Candida Albicans Sc. (C. albica)
as §3

Trichophyton rubrum Sc. = assay: Antifungal Test (MIC, Sabouraud's agar); format: cell-based; conditions: 168 h
[4] = tested on: Gliocladium virens (Fungus B); assay: Antifungal Activity (paper disc on agar); conditions: 30 μl of 300 ppm acetone solution, 25° C., 5 days
Method: as §4
Gliocladium virens (Fungus B), and

[5] = tested on: Fusarium moliniforme (Fungus C); assay: Antifungal Activity (paper disc on agar); conditions: 30 μl of 300 ppm acetone solution, 25° C., 5 days
Method: as §4
Fusarium moliniforme (Fungus C).
The antifungal activity is indicated by the following ratings:

[6] = tested on: Coriolus versicolor (Fungus D); assay: Wood-preservative Activity (Antidecay); conditions: paper disc, 30 μl of 300 ppm acetone solution, 25° C., 5 days
Method: (§5) A fungal disc of about 4 mm diameter was inoculated on an agar medium (2% by weight malt extract, 1% glucose, 0.3% peptone and 2% agar) in a petri dish of diameter 9 cm, by placing the disc on the center of the medium. Paper disc specimens were prepared by impregnating 30 μl of an acetone solution containing 300 ppm of the test compound into the disc (diameter 8 mm, thickness 0.7 mm) and then subjecting it to dry sterilization. The disc specimens were placed in a circle at about 1 cm distance from the fringe of the grown fungus, three days after the inoculation. The specimens were then maintained at 25° C. for 5 days, after which the antifungal activity was determined by visual observation of infection of the specimens by the fungus.
(§6) The procedure described in Experiment 7 was repeated, except that the fungi tested were Coriolus versicolor (Fungus D) and Tyromyces palustris (Fungus E), which are prescribed in JIS A-9201.

[7] = tested on: Tyromyces palustris (Fungus E); assay: Wood-preservative Activity (Antidecay); conditions: paper disc, 30 μl of 300 ppm acetone solution, 25° C., 5 days
Method: as §5, §6

| Structure (SMILES) | MIC (Mucor mucedo) [µg/mL] | MIC (Microsporum gypseum) [µg/mL] | MIC [1] [µg/mL] | MIC (Aspergillus fumigatus) [µg/mL] | antifungal activity, Fungus A [2] | MIC (Candida albicans 427) [µg/mL] | MIC [3] [µg/mL] | MIC (Candida Albicans Sc.) [µg/mL] | MIC (Trichophyton rubrum Sc.) [µg/mL] | antifungal activity, Fungus B [4] | antifungal activity, Fungus C [5] | wood-preservative (antidecay) activity, Fungus D [6] | wood-preservative (antidecay) activity, Fungus E [7] |
| --- | --- | --- | --- | --- | --- | --- | --- | --- | --- | --- | --- | --- | --- |
| C[Si](C)(C)CC(O)(Cn1cncn1)c1ccc(F)cc1 (stereo not shown) [Compound 1-3, 2-(4-Fluorophenyl)-1-(1H-1,2,4-triazol-1-yl)-3-trimethylsilyl-2-propanol] | > 50 | > 50 | 25 (≈ 85.2 µM) | > 50 | + | > 50 | > 50 | > 50 | 25 (≈ 85.2 µM) |  |  |  |  |
| C[Si](C)(C)CC(O)(Cn1cncn1)c1ccc(Cl)c(Cl)c1 (stereo not shown) [Compound 1-29, 2-(3,4-Dichlorophenyl)-1-(1H-1,2,4-triazol-1-yl)-3-trimethylsilyl-2-propanol] |  |  |  |  | - |  |  |  |  | - | + | - | - |
| C[Si](C)(C)CC(O)(Cn1cncn1)c1ccc(Br)cc1 (stereo not shown) [Compound 1-4, 2-(4-Bromophenyl)-1-(1H-1,2,4-triazol-1-yl)-3-trimethylsilyl-2-propanol] |  |  |  |  | + |  |  |  |  | + | + | + | + |
| C[Si](C)(C)CC(O)(Cn1cncn1)c1ccc(F)cc1 (stereo not shown) [Compound 1-78, Adduct of 2-(4-fluorophenyl)-1-(1H1,2,4-triazol-1-yl)-3-trimethylsilyl-2-propanol with saccharin] |  |  |  |  | - |  |  |  |  | + | + | + | + |
| C[Si](C)(C)CC(O)(Cn1cncn1)c1ccccc1F (stereo not shown) [Compound 1-17, 2-(2-Fluorophenyl)-1-(1H-1,2,4-triazol-1-yl)-3-trimethylsilyl-2-propanol] |  |  |  |  | + |  |  |  |  | + | + | + | + |
| C[Si](C)(C)CC(O)(Cn1cncn1)c1cc(Cl)c(Cl)cc1Cl (stereo not shown) [Compound 1-65, 1-(1H-1,2,4-Triazol-1-yl)-2-(2,4,5-trichlorophenyl)-3-trimethylsilyl-2-propanol] |  |  |  |  | - |  |  |  |  | - | + | - | - |
| C[Si](C)(C)CC(O)(Cn1ccnc1)c1ccc(Cl)cc1Cl (stereo not shown) [Compound 1-49, 2-(2,4-Dichlorophenyl)-1-(1H-1,3-imidazol-1-yl)-3-trimethylsilyl-2-propanol] |  |  |  |  | - |  |  |  |  | - | - | + | - |
| Cc1ccc(C(O)(Cn2cncn2)C[Si](C)(C)C)cc1 (stereo not shown) [Compound 1-5, 2-(4-Methylphenyl)-1-(1H-1,2,4-triazol-1-yl)-3-trimethylsilyl-2-propanol] |  |  |  |  | + |  |  |  |  | + | + | + | + |
| C[Si](C)(C)CC(O)(Cn1cncn1)c1ccc(C(F)(F)F)cc1 (stereo not shown) [Compound 1-6, 1-(1H-1,2,4-Triazol-1-yl)-2-(4-trifluoromethylphenyl)-3-trimethylsilyl-2-propanol] |  |  |  |  | + |  |  |  |  | - | + | + | + |
| C[Si](C)(C)CC(O)(Cn1cncn1)c1ccccc1Cl (stereo not shown) [Compound 1-16, 2-(2-Chlorophenyl)-1-(1H-1,2,4-triazol-1-yl)-3-trimethylsilyl-2-propanol] |  |  |  |  | + |  |  |  |  | + | + | + | + |
| C[Si](C)(C)CC(O)(Cn1cncn1)c1ccc(Cl)cc1Cl (stereo not shown) [Compound 1-11, 2-(2,4-Dichlorophenyl)-1-(1H-1,2,4-triazol-1-yl)-3-trimethysilyl-2-propanol] |  |  |  |  | + |  |  |  |  | + | + | + | + |
| CC[Si](C)(C)CC(O)(Cn1cncn1)c1ccc(F)cc1 (stereo not shown) [Compound 1-70, 3-Dimethylethylsilyl-2-(4-fluorophenyl)-1-(1H-1,2,4-triazol-1-yl)-2-propanol] |  |  |  |  | - |  |  |  |  | + | + | + | + |
| C[Si](C)(CC(O)(Cn1cncn1)c1ccc(F)cc1)c1ccc(Cl)cc1 (stereo not shown) [Compound 1-69, 3-[(4-Chlorophenyl)dimethylsilyl]-2-(4-fluorophenyl)-1-(1H-1,2,4-triazol-1-yl)-2-propanol] |  |  |  |  | - |  |  |  |  | - | + | + | - |
| C[Si](C)(C)CC(O)(Cn1cncn1)c1ccc(Cl)c(Cl)c1Cl (stereo not shown) [Compound 1-64, 1-(1H-1,2,4-Triazol-1-yl)-2-(2,3,4-trichlorophenyl)-3-trimethylsilyl-2-propanol] |  |  |  |  | - |  |  |  |  | - | - | - | + |
| C[Si](C)(C)CC(O)(Cn1ccnc1)c1ccc(F)cc1F (stereo not shown) [Compound 1-50, 2-(2,4-Difluorophenyl)-1-(1H-1,3-imidazol-1-yl)-3-trimethylsilyl-2-propanol] |  |  |  |  | - |  |  |  |  | - | + | + | - |
| C[Si](C)(C)CC(O)(Cn1cncn1)c1ccc(Cl)cc1F (stereo not shown) [Compound 1-14, 2-(4-Chloro-2-fluorophenyl)-1-(1H-1,2,4-triazol-1-yl)-3-trimethylsilyl-2-propanol] |  |  |  |  | + |  |  |  |  | + | + | + | + |
| C[Si](C)(C)CC(O)(Cn1cncn1)c1ccc(Cl)cc1 (stereo not shown) [Compound 1-83, Adduct of 2-(4-chlorophenyl)-1-(1H-1,2,4-triazol-1-yl)-3-trimethylsilyl-2-propanol with saccharin] |  |  |  |  | - |  |  |  |  | + | + | + | + |
| C[Si](C)(C)CC(O)(Cn1cncn1)c1ccccc1 (stereo not shown) [Compound 1-1, 2-Phenyl-1-(1H-1,2,4-triazol-1-yl)-3-trimethylsilyl-2-propanol] |  |  |  |  | + |  |  |  |  | - | + | + | + |

From patent publication US5306712A, “Fungicidal silicon-containing compounds and their agrochemical and medicinal uses” (Sanyo Company, Limited, priority 1991, dated 1994)
